The text below walks through data of patent US20040102364A1, “Backbone cyclized radiolabelled somatostatin analogs” (priority 2001, published 2004).

Read-outs that look alike come from different tables or passages of the source.

The target in one assay is T1, human cloned SST-R2 (Homo sapiens, UniProt P30874).
T1 construct: expressed in transfected cells; host or cells: CHO cells
Nature of the assay: Inhibition of 125I-Tyr11-SRIF binding to cloned human SST-R2 membranes (CHO cells). The settings on record: human cloned receptor; read-out: Concentration (nM) of SST analogs to inhibit SRIF binding by 50%, SST-R 2. The procedure: (§1) The SST analogs were tested for their potency in inhibition of the binding of ^125I-Tyr^11-SRIF (based on the method described by Raynor et. al., Molecular Pharmacology 43: 838, 1993) to membrane preparations expressing the transmembranal SST receptors (SST-R1, 2, 3, 4 or 5). The receptor preparations used for these tests were either from the cloned human receptors selectively and stably expressed in Chinese Hamster Ovary (CHO) cells or from cell lines naturally expressing the SST-Rs. […] The binding reactions were filtered, the filters were washed and the bound radioactivity was counted in β counter after addition of scintillation solution.

A further assay concerns the target T2, human SST-R4 (Homo sapiens, UniProt P31391).
T2 construct: expressed in transfected cells; host or cells: CHO cells
Nature of the assay: Inhibition of 125I-Tyr11-SRIF binding to cloned human SST-R4 membranes. The following applies: human cloned receptor; read-out: Concentration (nM) of SST analogs to inhibit SRIF binding by 50%, SST-R 4. Here is the method:
as §1

For the next assay, the target named is T3, human SST-R3 (Homo sapiens, UniProt P32745).
T3 construct: expressed in transfected cells; host or cells: CHO cells
As to the kind of experiment: Inhibition of 125I-Tyr11-SRIF binding to cloned human SST-R3 membranes. The following applies: human cloned receptor; read-out: Concentration (nM) of SST analogs to inhibit SRIF binding by 50%, SST-R 3. The procedure:
as §1

For a further assay, the target named is T4, human SST-R1 (Homo sapiens, UniProt P30872).
T4 construct: expressed in transfected cells; host or cells: CHO cells
As to the kind of experiment: Inhibition of 125I-Tyr11-SRIF binding to cloned human SST-R1 membranes. The settings on record: human cloned receptor; read-out: Concentration (nM) of SST analogs to inhibit SRIF binding by 50%, SST-R 1. The procedure: as §1

The target in a further assay is T5, human SST-R5 (Homo sapiens, UniProt P35346).
T5 construct: expressed in transfected cells; host or cells: CHO cells
As to the kind of experiment: Inhibition of 125I-Tyr11-SRIF binding to cloned human SST-R5 membranes. The settings on record: human cloned receptor; read-out: Concentration (nM) of SST analogs to inhibit SRIF binding by 50%, SST-R 5. The procedure: as §1

A further assay addresses rat SST-R2 (Rattus norvegicus, UniProt P30680). As to the kind of experiment: Subtype selectivity binding, rat SST-R2. The procedure: as §1
(§2) MPS-30012-02, 30012-08 and 30012-24 were all re-synthesized naked, purified and radiolabelled with ^99mTc. In vitro binding studies on all three ^99mTc compounds was performed. 30012-05, 30012-08 and 30012-24 were screened for subtype selectivity analysis.

The target of the next assay is rat SST-R1 (Rattus norvegicus, UniProt P28646). As to the kind of experiment: Subtype selectivity binding, rat SST-R1. The procedure: as §1, §2
The target of another assay is T6, rat SST-R5 (Rattus norvegicus, UniProt P30938).
T6 sequence (P30938 1-363): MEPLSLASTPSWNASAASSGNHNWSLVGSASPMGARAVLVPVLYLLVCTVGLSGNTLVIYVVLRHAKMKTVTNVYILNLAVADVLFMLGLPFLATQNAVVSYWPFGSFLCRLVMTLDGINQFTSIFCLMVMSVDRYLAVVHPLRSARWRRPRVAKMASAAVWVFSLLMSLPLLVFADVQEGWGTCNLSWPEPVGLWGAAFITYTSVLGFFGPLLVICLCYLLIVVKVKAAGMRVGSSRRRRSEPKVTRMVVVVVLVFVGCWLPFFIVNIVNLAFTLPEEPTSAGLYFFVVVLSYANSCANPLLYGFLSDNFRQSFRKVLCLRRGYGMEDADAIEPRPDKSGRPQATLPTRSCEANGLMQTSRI
As to the kind of experiment: Subtype selectivity binding, rat SST-R5. Here is the method:
as §1, §2

A further assay has as its target rat SST-R3 (Rattus norvegicus, UniProt P30936). Nature of the assay: Subtype selectivity binding, rat SST-R3. Here is the method:
as §1, §2

For the next assay, the target named is rat SST-R4 (Rattus norvegicus, UniProt P30937). As to the kind of experiment: Subtype selectivity binding, rat SST-R4. The procedure:
as §1, §2

Where [1] appears, read: # rows: determined in rat somatostatin receptors, read-out: Concentration (nM) of SST analogs to inhibit SRIF binding by 50%, SST-R 2.
The mark [2] stands for this setting: rat SST-R2, read-out: Selectivity: IC50, nM, rat SST-R-2.
Where [3] appears, read: # rows: determined in rat somatostatin receptors, read-out: Concentration (nM) of SST analogs to inhibit SRIF binding by 50%, SST-R 1.
Where [4] appears, read: rat SST-R1, read-out: Selectivity: IC50, nM, rat SST-R-1.
Where [5] appears, read: # rows: determined in rat somatostatin receptors, read-out: Concentration (nM) of SST analogs to inhibit SRIF binding by 50%, SST-R 5.
[6] abbreviates: rat SST-R5, read-out: Selectivity: IC50, nM, rat SST-R-5.
Setting [7] is: # rows: determined in rat somatostatin receptors, read-out: Concentration (nM) of SST analogs to inhibit SRIF binding by 50%, SST-R 3.
Where [8] appears, read: rat SST-R3, read-out: Selectivity: IC50, nM, rat SST-R-3.
The mark [9] stands for this setting: # rows: determined in rat somatostatin receptors, read-out: Concentration (nM) of SST analogs to inhibit SRIF binding by 50%, SST-R 4.
The mark [10] stands for this setting: rat SST-R4, read-out: Selectivity: IC50, nM, rat SST-R-4.

Chain of rat SST-R2 (P30680 whole entry): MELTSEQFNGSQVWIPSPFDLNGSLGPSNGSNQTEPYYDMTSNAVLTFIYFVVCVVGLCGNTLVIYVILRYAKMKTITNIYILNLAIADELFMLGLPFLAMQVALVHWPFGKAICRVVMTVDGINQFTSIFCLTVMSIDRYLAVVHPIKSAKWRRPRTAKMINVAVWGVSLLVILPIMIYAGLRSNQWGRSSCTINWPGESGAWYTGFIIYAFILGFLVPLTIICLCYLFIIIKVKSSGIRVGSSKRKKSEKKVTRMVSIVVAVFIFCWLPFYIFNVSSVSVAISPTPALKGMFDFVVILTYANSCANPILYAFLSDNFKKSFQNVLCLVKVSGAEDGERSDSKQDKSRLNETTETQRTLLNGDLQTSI
Chain of rat SST-R1 (P28646 whole entry): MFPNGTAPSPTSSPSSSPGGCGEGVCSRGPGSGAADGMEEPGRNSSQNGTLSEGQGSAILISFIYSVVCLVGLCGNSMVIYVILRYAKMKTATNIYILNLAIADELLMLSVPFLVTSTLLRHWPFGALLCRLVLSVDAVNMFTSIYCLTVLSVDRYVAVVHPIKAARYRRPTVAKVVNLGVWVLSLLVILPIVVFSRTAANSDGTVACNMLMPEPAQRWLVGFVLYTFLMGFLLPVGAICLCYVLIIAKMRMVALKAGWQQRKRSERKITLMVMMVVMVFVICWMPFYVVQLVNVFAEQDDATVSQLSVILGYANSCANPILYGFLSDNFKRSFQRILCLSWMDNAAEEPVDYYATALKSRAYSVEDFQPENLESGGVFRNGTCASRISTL
Chain of rat SST-R4 (P30937 whole entry): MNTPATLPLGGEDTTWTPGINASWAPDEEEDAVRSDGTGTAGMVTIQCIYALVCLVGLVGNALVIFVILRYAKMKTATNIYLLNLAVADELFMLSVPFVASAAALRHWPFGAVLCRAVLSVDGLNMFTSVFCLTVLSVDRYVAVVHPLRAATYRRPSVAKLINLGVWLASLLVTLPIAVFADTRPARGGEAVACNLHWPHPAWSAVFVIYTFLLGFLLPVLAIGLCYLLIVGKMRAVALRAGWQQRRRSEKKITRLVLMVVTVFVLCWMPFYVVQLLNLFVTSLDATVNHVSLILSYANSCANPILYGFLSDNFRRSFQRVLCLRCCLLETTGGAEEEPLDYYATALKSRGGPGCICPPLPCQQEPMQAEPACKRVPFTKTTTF
Chain of rat SST-R3 (P30936 whole entry): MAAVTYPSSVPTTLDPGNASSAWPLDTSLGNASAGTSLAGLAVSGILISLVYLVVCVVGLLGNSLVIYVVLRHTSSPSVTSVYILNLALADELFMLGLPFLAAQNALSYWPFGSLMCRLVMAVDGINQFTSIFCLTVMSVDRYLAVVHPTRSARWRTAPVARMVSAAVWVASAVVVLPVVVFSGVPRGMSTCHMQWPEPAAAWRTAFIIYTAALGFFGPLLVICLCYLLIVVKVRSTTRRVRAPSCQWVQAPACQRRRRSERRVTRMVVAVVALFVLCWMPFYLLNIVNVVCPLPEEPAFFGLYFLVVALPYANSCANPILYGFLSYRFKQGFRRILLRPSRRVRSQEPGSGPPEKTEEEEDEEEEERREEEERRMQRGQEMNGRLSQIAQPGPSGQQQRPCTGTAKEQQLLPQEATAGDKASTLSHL
T4 sequence (P30872 whole entry): as the sequence (P28646 whole entry) above, with P8S, T11S, S16P, G20S, V25G, C26G, S32A, S45A, A385T, S389T counted along it
T5 sequence (P35346 whole entry): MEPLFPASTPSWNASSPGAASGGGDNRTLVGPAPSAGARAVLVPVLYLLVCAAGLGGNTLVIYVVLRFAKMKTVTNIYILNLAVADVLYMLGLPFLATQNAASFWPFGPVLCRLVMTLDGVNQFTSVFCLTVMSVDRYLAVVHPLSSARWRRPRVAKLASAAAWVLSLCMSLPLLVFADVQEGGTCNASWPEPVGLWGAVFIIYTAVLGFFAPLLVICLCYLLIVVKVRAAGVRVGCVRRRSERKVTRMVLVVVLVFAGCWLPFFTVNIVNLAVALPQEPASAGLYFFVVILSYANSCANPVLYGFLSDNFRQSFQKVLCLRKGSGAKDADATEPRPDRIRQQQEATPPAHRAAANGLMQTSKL
T2 sequence (P31391 whole entry): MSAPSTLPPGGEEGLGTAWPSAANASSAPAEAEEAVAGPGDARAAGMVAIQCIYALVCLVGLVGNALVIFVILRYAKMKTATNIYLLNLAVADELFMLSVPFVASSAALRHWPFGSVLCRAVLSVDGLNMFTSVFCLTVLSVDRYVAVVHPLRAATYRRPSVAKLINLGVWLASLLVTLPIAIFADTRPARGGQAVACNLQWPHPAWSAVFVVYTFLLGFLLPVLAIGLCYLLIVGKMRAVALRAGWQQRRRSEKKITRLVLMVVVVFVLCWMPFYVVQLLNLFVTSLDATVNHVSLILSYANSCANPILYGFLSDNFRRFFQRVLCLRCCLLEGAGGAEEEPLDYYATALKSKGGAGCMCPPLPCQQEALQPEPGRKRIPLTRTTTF
T1 sequence (P30874 whole entry): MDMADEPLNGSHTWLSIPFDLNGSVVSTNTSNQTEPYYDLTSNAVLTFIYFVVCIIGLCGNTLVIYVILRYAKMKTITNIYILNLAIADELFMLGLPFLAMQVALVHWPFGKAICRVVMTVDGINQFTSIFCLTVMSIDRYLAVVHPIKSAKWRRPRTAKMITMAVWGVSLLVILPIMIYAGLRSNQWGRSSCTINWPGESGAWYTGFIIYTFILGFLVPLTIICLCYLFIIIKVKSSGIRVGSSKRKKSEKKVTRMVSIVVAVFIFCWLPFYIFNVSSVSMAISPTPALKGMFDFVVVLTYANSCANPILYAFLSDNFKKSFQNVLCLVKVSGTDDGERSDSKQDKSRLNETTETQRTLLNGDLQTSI
T3 sequence (P32745 whole entry): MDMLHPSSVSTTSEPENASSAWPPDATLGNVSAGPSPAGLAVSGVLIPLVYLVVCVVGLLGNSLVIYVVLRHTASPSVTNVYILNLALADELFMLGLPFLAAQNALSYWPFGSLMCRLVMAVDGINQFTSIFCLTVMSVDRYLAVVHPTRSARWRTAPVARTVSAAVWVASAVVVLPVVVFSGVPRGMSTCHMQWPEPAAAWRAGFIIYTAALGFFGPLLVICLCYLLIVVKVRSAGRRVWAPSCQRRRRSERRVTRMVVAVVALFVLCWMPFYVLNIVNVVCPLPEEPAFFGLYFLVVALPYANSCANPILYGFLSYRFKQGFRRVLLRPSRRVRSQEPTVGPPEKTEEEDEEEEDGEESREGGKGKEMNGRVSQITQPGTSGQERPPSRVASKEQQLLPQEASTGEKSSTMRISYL

As for `C[C@@H](O)[C@@H]1NC(=O)[C@H](CCCCN)NC(=O)[C@@H](Cc2c[nH]c3ccccc23)NC(=O)[C@H](Cc2ccccc2)NC(=O)[C@@H]2CSSC[C@H](NC1=O)C(=O)N([C@@H](Cc1ccccc1)C(N)=O)CCCNC(=O)CCCN[C@@H](Cc1ccccc1)C(=O)N2` [PTR 3205, PheC3-Cys-Phe-(D)Trp-Lys-Thr-Cys-PheN3-NH2], the IC50 on human cloned SST-R2 amounted to 1.5 nM; at human SST-R4 it was 123 nM; on human SST-R3, 323 nM; on human SST-R1, 349 nM; at human SST-R5, 186 nM.
For the compound “ReO-MA-Dpr(Gly)-Gly-Dab*-Phe-Trp-(D)Trp-Lys-Thr-Phe-GlyC3*-NH2 [ReO-3397]”, the IC50 came to 0.25 nM on rat SST-R2 (setting [1]); 0.25 nM at rat SST-R2 (setting [2]); 89 nM on rat SST-R1 (setting [3]); 89 nM on rat SST-R1 (setting [4]); 2.2 nM on rat SST-R5 (setting [5]); 2.2 nM at rat SST-R5 (setting [6]). Moreover, the IC50 turned out to be 76 nM on rat SST-R3 (setting [7]), 76 nM on rat SST-R3 (setting [8]), 3.3 nM at rat SST-R4 (setting [9]) and 3.3 nM at rat SST-R4 (setting [10]).
For the compound “ReO-MA-Dpr(Gly)-βAla-Dab*-Phe-Trp-(D)Trp-Lys-Thr-Phe-GlyC3*-NH2 [PTR 3399]”, the IC50 at rat SST-R2 (setting [1]) came to 1.6 nM; at rat SST-R2 (setting [2]) it was 1.6 nM; on rat SST-R1 (setting [3]) it was 156 nM; at rat SST-R1 (setting [4]) it was 156 nM; at rat SST-R5 (setting [5]) it was 1.3 nM; at rat SST-R5 (setting [6]), 1.3 nM. Besides, the IC50 on rat SST-R3 (setting [7]) is 103 nM; at rat SST-R3 (setting [8]), 103 nM; at rat SST-R4 (setting [9]) it was 15 nM; on rat SST-R4 (setting [10]), 15 nM. The “binding to SST-R5 (in words)” value on rat SST-R5 is “binds”.
With “ReO-MA-Gly-Gly-Gly-6-aminohexanoic acid-Dab*-Phe-Trp-(D)Trp-Lys-Thr-Phe-GlyC3*-NH2 [PTR 3401]”, the IC50 on rat SST-R2 (setting [1]) came out at 0.44 nM; on rat SST-R2 (setting [2]) it was 0.44 nM; on rat SST-R1 (setting [3]), 402 nM; on rat SST-R1 (setting [4]), 402 nM; on rat SST-R5 (setting [5]), 3.7 nM; at rat SST-R5 (setting [6]), 3.7 nM. Besides, the IC50 was found to be 110 nM at rat SST-R3 (setting [7]), 110 nM on rat SST-R3 (setting [8]), 20 nM on rat SST-R4 (setting [9]) and 20 nM at rat SST-R4 (setting [10]).
